Each compound was assayed against T1, human PAH with the R408W mutation (Homo sapiens, UniProt P00439, R408W) (assay: Cell Based Phenylalanine Flux Assay). Settings: A375 cells expressing human R408W PAH; 24 hrs with compound, then sepiapterin and 13C9,15N-Phenylalanine for 4 hours; 13C-Tyrosine by LC-MS; average where tested multiple times; read-out: AC50.
T1 construct: expressed in transfected cells
T1 sequence (P00439 1-452 R408W): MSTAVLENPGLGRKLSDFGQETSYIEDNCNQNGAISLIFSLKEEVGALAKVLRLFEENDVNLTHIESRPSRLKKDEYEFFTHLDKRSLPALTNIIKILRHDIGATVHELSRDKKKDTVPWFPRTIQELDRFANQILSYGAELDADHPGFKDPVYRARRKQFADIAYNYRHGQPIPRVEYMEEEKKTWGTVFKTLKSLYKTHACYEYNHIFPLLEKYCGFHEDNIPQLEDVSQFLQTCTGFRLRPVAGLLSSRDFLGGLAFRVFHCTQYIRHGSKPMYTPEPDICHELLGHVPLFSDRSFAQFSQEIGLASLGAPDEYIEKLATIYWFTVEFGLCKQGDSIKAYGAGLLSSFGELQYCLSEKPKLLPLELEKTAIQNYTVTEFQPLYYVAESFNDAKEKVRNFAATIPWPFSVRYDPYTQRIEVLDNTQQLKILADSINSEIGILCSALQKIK
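Further: Ten-point dose curve from 2-fold serial dilutions, run in duplicate at 0.5% DMSO final, tracer step used 20 µM sepiapterin and 800 µM labeled phenylalanine.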

Row | SMILES | AC50 [nM]
1 | Cc1cccn2nc([C@H]3c4nc[nH]c4CCN3c3nnc(-c4cccnc4F)o3)cc12 [Example 2265, (R)-2-(2-fluoropyridin-3-yl)-5-(4-(4-methylpyrazolo[1,5-a]pyridin-2-yl)-1,4,6,7-tetrahydro-5H-imidazo[4,5-c]pyridin-5-yl)-1,3,4-oxadiazole] | > 5000
2 | FC(F)Oc1cccn2nc([C@@H]3c4nc[nH]c4CCN3c3ccc(C(F)(F)F)cn3)cc12 [Example 2272, (S)-4-(4-(difluoromethoxy)pyrazolo[1,5-a]pyridin-2-yl)-5-(5-(trifluoromethyl)pyridin-2-yl)-4,5,6,7-tetrahydro-1H-imidazo[4,5-c]pyridine] | < 500
3 | Cc1cccnc1-c1nnc(N2CCc3[nH]cnc3[C@H]2c2cc3c(C(F)F)cccn3n2)o1 [Example 2279, (S)-2-(4-(4-(difluoromethyl)pyrazolo[1,5-a]pyridin-2-yl)-1,4,6,7-tetrahydro-5H-imidazo [4,5-c]pyridin-5-yl)-5-(3-methylpyridin-2-yl)-1,3,4-oxadiazole] | < 500
4 | Cc1cccnc1-c1nnc(N2CCc3[nH]cnc3[C@@H]2c2cc3c(F)cccn3n2)o1 [Example 2281, (R)-2-(4-(4-fluoropyrazolo [1,5-a]pyridin-2-yl)-1,4,6,7-tetrahydro-5H-imidazo [4,5-c]pyridin-5-yl)-5-(3-methylpyridin-2-yl)-1,3,4-oxadiazole] | > 5000
5 | Cc1cccnc1-c1nnc(N2CCc3[nH]cnc3[C@H]2c2cc3c(Cl)cccn3n2)o1 [Example 2287] | < 500
6 | Cc1cc(-c2nnc(C(=O)N3CCc4[nH]cnc4[C@H]3c3cc4c(F)cccn4n3)o2)n[nH]1 [Example 2295, (S)-(4-(4-fluoropyrazolo [1,5-a]pyridin-2-yl)-1,4,6,7-tetrahydro-5H-imidazo[4,5-c]pyridin-5-yl)(5-(5-methyl-1H-pyrazol-3-yl)-1,3,4-oxadiazol-2-yl)methanone] | 500 to 1000
7 | Cc1c[nH]nc1-c1nnc(C(=O)N2CCc3[nH]cnc3[C@H]2c2cc3c(F)cccn3n2)o1 [Example 2296, (S)-(4-(4-fluoropyrazolo [1,5-a]pyridin-2-yl)-1,4,6,7-tetrahydro-5H-imidazo[4,5-c]pyridin-5-yl)(5-(4-methyl-1H-pyrazol-3-yl)-1,3,4-oxadiazol-2-yl)methanone] | < 500
8 | Cc1c[nH]nc1-c1nnc(C(=O)N2CCc3[nH]cnc3[C@@H]2c2cc3c(F)cccn3n2)o1 [Example 2297, (R)-(4-(4-fluoropyrazolo [1,5-a]pyridin-2-yl)-1,4,6,7-tetrahydro-5H-imidazo[4,5-c]pyridin-5-yl)(5-(4-methyl-1H-pyrazol-3-yl)-1,3,4-oxadiazol-2-yl)methanone] | > 5000
9 | Cc1cccnc1-c1nnc(N2CCc3[nH]cnc3[C@@H]2c2cc3cccc(Cl)n3n2)o1 [Example 2306, (R)-2-(4-(7-chloropyrazolo [1,5-a]pyridin-2-yl)-1,4,6,7-tetrahydro-5H-imidazo [4,5-c]pyridin-5-yl)-5-(3-methylpyridin-2-yl)-1,3,4-oxadiazole] | > 5000
10 | Cc1cccnc1-c1nnc(N2CCc3[nH]cnc3[C@H]2c2cc3cccc(Cl)n3n2)o1 [Example 2307, (S)-2-(4-(7-chloropyrazolo [1,5-a]pyridin-2-yl)-1,4,6,7-tetrahydro-5H-imidazo [4,5-c]pyridin-5-yl)-5-(3-methylpyridin-2-yl)-1,3,4-oxadiazole] | < 500
11 | Cc1cccn2nc([C@H]3c4nc[nH]c4CCN3c3ccccc3)cc12 [Example 2310, (R)-4-(4-methylpyrazolo [1,5-a]pyridin-2-yl)-5-phenyl-4,5,6,7-tetrahydro-1H-imidazo[4,5-c]pyridine] | 1000 to 5000
12 | FC(F)Oc1cccn2nc([C@@H]3c4nc[nH]c4CCN3c3cnccn3)cc12 [Example 2319, (S)-4-(4-(difluoromethoxy)pyrazolo[1,5-a]pyridin-2-yl)-5-(pyrazin-2-yl)-4,5,6,7-tetrahydro-1H-imidazo[4,5-c]pyridine] | < 500
13 | CC(C)c1nnc(N2CCc3[nH]cnc3[C@H]2c2cc3c(C(F)F)cccn3n2)o1 [Example 2321, (S)-2-(4-(4-(difluoromethyl)pyrazolo[1,5-a]pyridin-2-yl)-1,4,6,7-tetrahydro-5H-imidazo [4,5-c]pyridin-5-yl)-5-isopropyl-1,3,4-oxadiazole] | < 500
14 | Cc1cccc2cc([C@H]3c4nc[nH]c4CCN3c3nnc(C(C)(F)F)o3)nn12 [Example 2328, (R)-2-(1,1-difluoroethyl)-5-(4-(7-methylpyrazolo[1,5-a]pyridin-2-yl)-1,4,6,7-tetrahydro-5H-imidazo[4,5-c]pyridin-5-yl)-1,3,4-oxadiazole] | > 5000
15 | Cc1ncccc1-c1nnc(N2CCc3[nH]cnc3[C@H]2c2cc3cccc(Cl)n3n2)o1 [Example 2330, (S)-2-(4-(7-chloropyrazolo [1,5-a]pyridin-2-yl)-1,4,6,7-tetrahydro-5H-imidazo [4,5-c]pyridin-5-yl)-5-(2-methylpyridin-3-yl)-1,3,4-oxadiazole] | 500 to 1000
16 | CC(C)c1cccn2nc([C@H]3c4nc[nH]c4CCN3c3nnc(-c4cccnc4F)o3)cc12 [Example 2334, (R)-2-(2-fluoropyridin-3-yl)-5-(4-(4-isopropylpyrazolo[1,5-a]pyridin-2-yl)-1,4,6,7-tetrahydro-5H-imidazo[4,5-c]pyridin-5-yl)-1,3,4-oxadiazole] | > 5000
17 | Cc1cccc(-c2nnc(N3CCc4[nH]cnc4[C@H]3c3cc4ccccn4n3)o2)n1 [Example 2342, (S)-2-(6-methylpyridin-2-yl)-5-(4-(pyrazolo[1,5-a]pyridin-2-yl)-1,4,6,7-tetrahydro-5H-imidazo[4,5-c]pyridin-5-yl)-1,3,4-oxadiazole] | 1000 to 5000
18 | Cc1cccc(-c2nnc(N3CCc4[nH]cnc4[C@@H]3c3cc4ccccn4n3)o2)n1 [Example 2343, (R)-2-(6-methylpyridin-2-yl)-5-(4-(pyrazolo[1,5-a]pyridin-2-yl)-1,4,6,7-tetrahydro-5H-imidazo[4,5-c]pyridin-5-yl)-1,3,4-oxadiazole] | > 5000
19 | Cc1cccc(-c2nnc(N3CCc4[nH]cnc4[C@@H]3c3cc4c(C)cccn4n3)o2)n1 [Example 2344] | > 5000
20 | Cc1cccc(-c2nnc(N3CCc4[nH]cnc4[C@@H]3c3cc4c(C(F)F)cccn4n3)o2)n1 [Example 2346, (R)-2-(4-(4-(difluoromethyl)pyrazolo[1,5-a]pyridin-2-yl)-1,4,6,7-tetrahydro-5H-imidazo[4,5-c]pyridin-5-yl)-5-(6-methylpyridin-2-yl)-1,3,4-oxadiazole] | > 5000
21 | Cc1cccnc1-c1nnc(N2CCc3[nH]cnc3[C@H]2c2cc3cccc(C(F)F)n3n2)o1 [Example 2352, (S)-2-(4-(7-(difluoromethyl)pyrazolo[1,5-a]pyridin-2-yl)-1,4,6,7-tetrahydro-5H-imidazo [4,5-c]pyridin-5-yl)-5-(3-methylpyridin-2-yl)-1,3,4-oxadiazole] | 500 to 1000
22 | Cc1cccn2nc([C@@H]3c4nc[nH]c4CCN3c3nnc(-c4cccc(F)n4)o3)cc12 [Example 2361, (S)-2-(6-fluoropyridin-2-yl)-5-(4-(4-methylpyrazolo[1,5-a]pyridin-2-yl)-1,4,6,7-tetrahydro-5H-imidazo[4,5-c]pyridin-5-yl)-1,3,4-oxadiazole] | < 500
23 | O=C(c1nnc(-c2ccc(F)cn2)o1)N1CCc2[nH]cnc2[C@H]1c1cc2ccccn2n1 [Example 2365, (S)-(5-(5-fluoropyridin-2-yl)-1,3,4-oxadiazol-2-yl)(4-(pyrazolo[1,5-a]pyridin-2-yl)-6,7-dihydro-1H-imidazo[4,5-c]pyridin-5(4H)-yl)methanone] | 1000 to 5000
24 | O=C(c1cn[nH]c1C(F)F)N1CCc2[nH]cnc2[C@H]1c1cc2ccccn2n1 [Example 2366, (S)-(5-(difluoromethyl)-1H-pyrazol-4-yl)(4-(pyrazolo[1,5-a]pyridin-2-yl)-6,7-dihydro-1H-imidazo[4,5-c]pyridin-5(4H)-yl)methanone] | 1000 to 5000
25 | Cc1ccc2cc([C@H]3c4nc[nH]c4CCN3C(=O)c3nnc(-c4cnn(C)c4)o3)nn2c1 [Example 2381, (R)-(5-(1-methyl-1H-pyrazol-4-yl)-1,3,4-oxadiazol-2-yl)(4-(6-methylpyrazolo[1,5-a]pyridin-2-yl)-6,7-dihydro-1H-imidazo[4,5-c]pyridin-5(4H)-yl)methanone] | > 5000
26 | O=C(c1nnc(C2CC2)o1)N1CCc2[nH]cnc2[C@H]1c1cc2ccc(F)cn2n1 [Example 2404, (S)-(5-cyclopropyl-1,3,4-oxadiazol-2-yl)(4-(6-fluoropyrazolo[1,5-a]pyridin-2-yl)-6,7-dihydro-1H-imidazo[4,5-c]pyridin-5(4H)-yl)methanone] | 1000 to 5000
27 | Cn1cc(-c2nnc(C(=O)N3CCc4[nH]cnc4[C@H]3c3cc4ccc(C(F)(F)F)cn4n3)o2)cn1 [Example 2416, (S)-(5-(1-methyl-1H-pyrazol-4-yl)-1,3,4-oxadiazol-2-yl)(4-(6-(trifluoromethyl)pyrazolo[1,5-a]pyridin-2-yl)-6,7-dihydro-1H-imidazo [4,5-c]pyridin-5(4H)-yl)methanone] | 1000 to 5000
28 | O=C(c1nnc(-c2cnn(C(F)(F)F)c2)o1)N1CCc2[nH]cnc2[C@H]1c1cc2cccc(C(F)(F)F)n2n1 [Example 2428, (S)-(5-(1-(trifluoromethyl)-1H-pyrazol-4-yl)-1,3,4-oxadiazol-2-yl)(4-(7-(trifluoromethyl)pyrazolo[1,5-a]pyridin-2-yl)-6,7-dihydro-1H-imidazo[4,5-c]pyridin-5(4H)-yl)methanone] | 1000 to 5000

Reference: patent US12673961B2 (Agios Pharmaceuticals, Inc., priority 2022, dated 2026)
